Laboratory results as given in patent US20250262251A1, “THERARONSTIC APPROACH FOR INFLAMMATORY BOWEL DISEASE-ASSOCIATED SPONDYLOARTHRITIS” (Cornell University, priority 2024, published 2025).

How the values were obtained:
[1] = system: Jackson SPF or germ-free C57BL/6 WT mice; assay: Fecal short chain fatty acids and 5-ASA in SPF or germ-free mice treated with SAS or BSD; format: in vivo, mouse
Procedure: (§1) Gnotobiotic C57BL/6 wild-type (WT) mice were bred and maintained at WCM Gnotobiotic Mouse facility. Specific pathogen free (SPF) C57BL/6 WT mice were ordered from Jackson Laboratory. C57BL/6 Gpr109a^−/− mice were obtained from Marcel van den Brink laboratory and were bred and maintained under SPF conditions at WCM.
(§2) For induction of chemical colitis, 2% dextran sulfate sodium (DSS) (wt/vol) (M.W. 40,000-50,000; Affymetrix, Santa Clara, CA) was added to drinking water and administered ad libitum for 7 days. Mice were then monitored daily for weight loss and survival. Mouse Lipocalin-2 was measured in the cecal content supernatant using sandwich enzyme-linked immunosorbent assay (R&D Systems, Minneapolis, MN).
(§3) To determine drug fecal levels and its impact on fecal metabolites, fecal samples were treated with cold 80% methanol for 4 hours at 4° C. Samples were then centrifuged at 14,000 g for 20 min at 4° C. Supernatants were transferred to a sterile 1.5 ml tube and stored at-80° C. Bacterial supernatants were treated with 4X volume of the 80% methanol. Polar metabolomic analysis was performed by the WCM Proteomics and Metabolomics Core for target polar metabolomics analysis by LC-MS. Metabolites were identified using an in-house library established using chemical standards. Identification required exact mass (within 5ppm) and standard retention times. To determine short chain fatty acids (SCFAs) fecal levels, target metabolomics were performed using liquid chromatography-quadruple-time of flight mass spectrometry as previously described^62. Relative metabolite quantitation was performed based on peak area for each metabolite evaluated and normalized by sample weight.

[2] = system: patients with a clinical diagnosis of IBD and ASAS-defined SpA; assay: Prospective clinical study of SAS therapy in IBD-pSpA subjects (BASDAI, ASDAS, HBI, CRP); format: in vivo, human; set-up: proportion of treated patients who tolerated increase: dose or concentration left out as unconfirmed
Text: Eligible patients of any gender were between the ages of 18-80 with ulcerative colitis (UC) or Crohn's disease (CD) and ASAS criteria of pSpA defined as the presence of peripheral arthritis, enthesitis or dactylitis^50. Patients with active SpA, defined as ASDAS>1.3 and/or BASDAI≥4, were eligible to participate^51, 52. […] Participants who declined therapy or were intolerant of SAS were followed as standard of care controls. […] All patients provided voluntary informed consent and the study ethics was approved by the Weill Cornell institutional review board (IRB 1504016115).
The primary endpoint of our analysis was clinical response in BASDAI, defined conservatively as a reduction in BASDAI of >2. Secondary endpoints were clinical response in ASDAS and Harvey Bradshaw Index (HBI) for CD defined as reduction in ASDAS of ≥1.1 at week 12 post-study initiation^51 or a decrease in HBI of ≥3^54, respectively. Exploratory analysis included absolute reduction in BASDAI, ASDAS, CRP, and HBI.
To determine significance of […] variables, Student's t test was applied if two groups were compared, otherwise two-way ANOVA test was used. For non-parametric data, Wilcoxon matched-pairs signed-rank test was calculated when paired analyses were carried, otherwise Mann-Whitney test was applied. If required, Bonferroni or Tukey tests were applied for multiple comparison correction. Metagenomic and transcriptomic analyses were performed in R studio (Boston, MA) using R package ‘phyloseq’^66 and plots were constructed in ‘ggplot2’ or GraphPad (San Diego, CA). Differential gene expression analysis was performed with DESeq2^72. Differential taxa or pathway abundance was assessed using linear discriminant analysis (LDA) effect size (LEfSe)^31. Correlation between two continuous variables (e.g. fecal drug levels, Δ BASDAI, alpha diversity) was determined with linear regression models. For discriminating responders from non-responders, we fit linear regression models on the relative abundances of select taxa and constructed corresponding ROC curves. Area under the curve (AUC) and P values were computed using R.

DSS-induced colitis = DSS-induced colitis in SPF WT mice; format: in vivo, mouse; details: 2% DSS 7 days, SAS 300 mg/kg/day
Procedure: as §1, §2
(§4) All animal experiments were performed with 6-8-week-old WT, Gpr109a^−/− and heterozygous littermate mice. Both female and male mice were used with random and equal assignment of same sex to each experimental group. All animal studies were carried out in accordance with protocols approved by the Institutional Animal Care and Use Committee at WCM.

[3] = system: gnotobiotic mice colonized with IBD-pSpA donor microbiomes; assay: Gnotobiotic mice colonized with responder or non-responder microbiomes: fecal butyrate and DSS colitis; format: in vivo, mouse
Procedure: as §1, §2
For gnotobiotic experiments, germ-free (GF) mice were gavaged with 1 g of homogenized patient fecal samples diluted in 10 ml of reduced PBS under anaerobic conditions, as previously described^53. Mice gavaged with ATCC 27768 F. prausnitzii received 1×10^9 colony forming units (CFU) grown under anaerobic conditions at log-phase in Yeast Casitone Fatty Acids Broth with Carbohydrate media (YCFAC, Anaerobe Systems, Morgan Hill, CA).
as §3

[4] = system: fecal samples of IBD-pSpA subjects; assay: Fecal metabolomics of IBD-pSpA subjects treated with SAS; format: in vivo, human; details: responders
Procedure: as §3

[5] = system: butyrate receptor Gpr109a; assay: DSS-induced colitis in Gpr109a-deficient and heterozygous mice; format: in vivo, mouse
Procedure: as §1, §2, §4

[6] = system: F. prausnitzii ATCC 27768; assay: F. prausnitzii in vitro culture with sulfapyridine (growth, RNA-seq, qPCR, mass spectrometry); format: cell-based, Faecalibacterium prausnitzii
Procedure: as §3
(§5) CFU from F. prausnitzii cultures were assessed anaerobically in YCFA agar. Growth was measured by absorbance, OD600, on SpectraMax Plus (Molecular Devices, San Jose, CA). RNA isolation was performed using RNeasy PowerMicrobiome kit (Qiagen, Hilden, Germany) following the manufacture instructions. RNA was then quantified by Nanodrop prior to reverse transcription with qScript cDNA SuperMix kit (Quantabio, Beverly, MA) or RNAseq library preparation.
RNA-seq library preparation and sequencing were performed by WCM Genomics Core. For library preparation, the Illumina Stranded Total RNA Prep kit was used. High-throughput sequencing was performed using the PE 2×50 cycles protocol in the NovaSeq 6000 Illumina platform targeting 10 million reads/sample. Bioinformatics and statistical analysis were then performed by the WCM Bioinformatics Core. Samples were aligned with STAR^67 to NCBI reference genome GCF_000154385.1 (F. prausnitzii M21/2). Quality control was performed with QoRTs^68 on aligned BAM files. Counts per gene were then calculated using featureCounts^69. BioCyc^70 analyses were performed with clusterProfiler to identify pathways/gene sets that are overrepresented among the differentially expressed genes.
(§6) qPCR was performed on an Applied BioSciences Quant Studio 6 Flex Real-time PCR (Applied Biosystems, Waltham, MA) using PerfeCTa SYBR Green Fast mix, Low ROX (Quantabio, Beverly, MA). The following primers were used: for 16S rRNA gene −515F 5′ […] 3′ (SEQ ID NO:1), −926R 5′ […] 3′ (SEQ ID NO:2)^71 F. prausnitzii but gene F: 5′ […] 3′ SEQ ID NO:3), R: 5′ […] 3′ (SEQ ID NO:4) and E. rectale but gene F: 5′ […] 3′, SEQ ID NO:5) R: 5′ […] 3′ (SEQ ID NO:6) (designed on the PrimerQuest Tool from IDT, Coralville, IA). The thermocycler program was as follows: initial cycle of 95° C. for 60 s, followed by 40 PCR cycles at 95° C. for 5 s, 60° C. for 15 s, 72° C. for 15 s. Relative levels of the but target gene was determined by calculating the Δ Ct to the conserved 16S rRNA gene expression.

E. rectale DSM 17629 = assay: E. rectale in vitro culture with sulfapyridine (but expression); format: cell-based, Eubacterium rectale; details: SP 1 mM
Procedure: as §5, §6

[7] = SPF WT mice, 300 mg/kg/day, day 14
[8] = RNA-seq, SP 1 mM vs NaOH vehicle

Structure (SMILES): O=C(O)CCNC(=O)c1ccc(/N=N/c2ccc(O)c(C(=O)O)c2)cc1 [BSD, balsalazide]
- fecal butyrate levels compared to H2O vehicle controls [1, 7]: numerically higher
- conversion of prodrug by the mouse gut microbiome (5-ASA detection in fecal samples) ([1]; SPF mice, day 7 post-treatment initiation): efficiently converted

Structure (SMILES): O=C(O)c1cc(/N=N/c2ccc(S(=O)(=O)Nc3ccccn3)cc2)ccc1O [SAS, sulfasalazine]
- proportion of treated patients who tolerated increase ([2]; 22 patients treated with SAS, n=11): 50%
- absolute score reduction in BASDAI compared to controls ([2]; baseline to week 12): significant absolute score reduction
- difference in CRP alone compared to controls ([2]; baseline to week 12): no difference
- reduction in all joint disease activity scores, 2 mg versus 4 mg daily ([2]; comparison between SAS doses): equivalent reduction
- impact of baseline biologic or mesalamine therapy on change in disease activity scores following SAS treatment ([2]; human, in vivo): did not impact
- proportion with clinical improvement using ASDAS ([2]; week 12, controls 0%, P=.07): 28.6%
- proportion of patients achieving clinical response in joint symptoms (reduction in BASDAI of >2) ([2]; week 12, controls 9.1%, P=.04): 45.4%
- cecal lipocalin compared to control treated mice (DSS-induced colitis): reduced
- mortality compared to control treated mice (DSS-induced colitis): significantly reduced
- weight loss compared to control treated mice (DSS-induced colitis): attenuated
- abundance of fecal butyrate following SAS treatment ([3]; mice colonized with non-responder microbiome): not changed
- abundance of fecal butyrate following SAS treatment ([3]; mice colonized with responder microbiomes): higher abundance
- weight loss ([3]; non-responder microbiomes, DSS): not responsive
- intestinal inflammation measured by lipocalin ([3]; responder microbiomes, DSS): reduced
- weight loss ([3]; responder microbiomes, DSS): reduced
- fecal butyrate levels post-treatment ([1]; GF mice): no changes
- fecal acetate [1, 7]: no significant change
- fecal butyrate levels compared to H2O vehicle controls [1, 7]: significant increase
- fecal propionate [1, 7]: no significant change
- thymine fecal abundance after SAS treatment ([4]; P=.016): significantly reduced
- fecal deoxyuridine levels after SAS treatment ([4]; P=.05): concomitant increase
- inflammation measured by lipocalin ([5]; mice deficient for Gpr109a): no effect
- survival ([5]; mice deficient for Gpr109a): no effect
- weight loss ([5]; mice deficient for Gpr109a): no effect
- intestinal inflammation measured by cecal lipocalin ([5]; mice heterozygous for Gpr109a): decreased intestinal inflammation
- survival ([5]; mice heterozygous for Gpr109a): significantly improved
- weight loss ([5]; mice heterozygous for Gpr109a): reduced weight loss

Structure (SMILES): Nc1ccc(S(=O)(=O)Nc2ccccn2)cc1 [SP, sulfapyridine]
- effect of dose on F. prausnitzii growth ([6]; 1 mM, anaerobic culture): sub-inhibitory
- folT (folate ECF transporter S component FolT) expression ([6]; RNA-seq, SP 1 mM): upregulation
- acetate kinase (ackA) expression [6, 8]: downregulation
- but expression [6, 8]: concomitant increase
- phosphate acetyltransferase (pta) expression [6, 8]: downregulation
- thymidine kinase expression ([6]; bacterial cultures with SP): significant increase
- thymine metabolites ([6]; bacterial cultures with SP): corresponding decrease
- butyrate production ([6]; mass spectrometry after 22 and 46 hours of culture, both timepoints): robustly increased
- induction of but in response to SP on supplementation with folate ([6]; qPCR, SP plus folate 566 μM): abrogated
- expression of but in E. rectale (E. rectale DSM 17629): did not change
